Results as given in patent publication US10189809B2, “SGC stimulators” (Ironwood Pharmaceuticals, Inc., priority 2010, dated 2019).
Where two headings read alike, the source gives them in different places.

Experiments:
[1] = molecular target: T1, soluble guanylate cyclase (sGC) (Homo sapiens (Human), UniProt Q02108+Q02153); assay: sGC-HEK-cGMP assay run in the absence of SNP (HEK WC assay); type: cell-based; conditions: for HEK WC Assay (fold increase at 10 μM): compound at 10 μM; for HEK WC Assay (fold increase at 10 μM) / HEK WC Assay (fold increase at 30 μM): no SNP, increase in the sGC receptor activity; for HEK WC Assay (fold increase at 30 μM) / HEK WC Assay (fold increase at 30 μM in the absence of SNP): compound at 30 μM
Method in brief: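 HEK293 cells with endogenous sGC, preincubated 15 min at 37° C with 0.5 mM IBMX, then exposed to test compound 10 min at 37° C without SNP. Cells lysed in 0.1 M HCl; cGMP quantified by LC/MS against a standard curve. EC50 from concentration-response curves.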

[2] = molecular target: T1, soluble guanylate cyclase (sGC); assay: sGC-HEK-cGMP assay run with SNP incubation (HEK WC assay); type: cell-based; conditions: for Emax at 10 µM: read-out: HEK WC Assay (% Emax at 10 uM/with 10 uM SNP); for Emax at 30 µM: read-out: HEK WC Assay (% Emax at 30 uM/with 10 uM SNP); for HEK WC Assay (fold increase at 30 μM in the presence of 10 μM SNP): compound at 30 μM; for EC50: in the presence of 10 uM SNP
Method in brief: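 HEK293 cells with endogenous sGC were pretreated with 0.5 mM IBMX for 15 min at 37 °C, then exposed to test compound plus sodium nitroprusside for 10 min at 37 °C.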

[3] = molecular target: Human soluble guanylate cyclase enzyme (hsGC) (Homo sapiens (Human), UniProt Q02108+Q02153); assay: Purified human sGC enzyme activity assay; type: biochemical; conditions: for sGC Enzyme (specific activity at 10 μM) / sGC Enzyme (fold increase at 10 μM without SNP): 10 μM compound; for sGC Enzyme (specific activity at 30 μM) / sGC Enzyme (fold increase at 30 μM without SNP): 30 μM compound
Protocol: Human soluble guanylate cyclase enzyme (hsGC) obtained from Enzo Inc. (P/N: ALX-201-177) was used to evaluate the activity of test compounds. The assay reactions contained 0.1 M Tris (pH 8.0), 0.5 mg/mL BSA (pH 8.0), 2 mM DTT, 2 mM MgCl2, 300 μM GTP, 1 mM 3-isobutyl-1-methylxanthine (IBMX) and 5 ng human soluble guanylate cyclase enzyme. Test compounds in DMSO were then added (2 μL, 10 or 30 μM final concentration) and incubated (200 μL, 96-well plate format) at 37° C. for 30 minutes. The controls were carried out using 2 μL DMSO. After the 30 minute incubation, the reaction was stopped with the addition of 200 μL of cold methanol. The plate was then centrifuged at 3,200 rpm for 10 minutes at room temperature. Supernatants (200 μL) were collected and transferred to a new 96 well plate for analysis.
An 8 point cGMP (Sigma-Aldrich P/N: G6129) standard curve was prepared in assay buffer ranging from 0.156-20 μM. Samples for the cGMP standard curve were then diluted with an equal volume of methanol resulting in final cGMP concentrations of 0.078-10 μM.
The cGMP standard curve was generated using GraphPad Prism Software.
Calculations: Specific Activity was determined by the amount of cGMP formed (nmoles) per mg of sGC per min. Enzyme “fold-change” was calculated by dividing Specific Activity for test compounds by Specific Activity of DMSO controls.

[4] = read-out: HEK WC Assay (% Emax at 1 μM with 10 uM SNP)
[5] = read-out: HEK WC Assay (% Emax at 10 μM with 10 uM SNP)
[6] = read-out: HEK WC Assay (% Emax at 30 μM with 10 uM SNP)

Chain of Human soluble guanylate cyclase enzyme (hsGC) (Q02153 whole entry): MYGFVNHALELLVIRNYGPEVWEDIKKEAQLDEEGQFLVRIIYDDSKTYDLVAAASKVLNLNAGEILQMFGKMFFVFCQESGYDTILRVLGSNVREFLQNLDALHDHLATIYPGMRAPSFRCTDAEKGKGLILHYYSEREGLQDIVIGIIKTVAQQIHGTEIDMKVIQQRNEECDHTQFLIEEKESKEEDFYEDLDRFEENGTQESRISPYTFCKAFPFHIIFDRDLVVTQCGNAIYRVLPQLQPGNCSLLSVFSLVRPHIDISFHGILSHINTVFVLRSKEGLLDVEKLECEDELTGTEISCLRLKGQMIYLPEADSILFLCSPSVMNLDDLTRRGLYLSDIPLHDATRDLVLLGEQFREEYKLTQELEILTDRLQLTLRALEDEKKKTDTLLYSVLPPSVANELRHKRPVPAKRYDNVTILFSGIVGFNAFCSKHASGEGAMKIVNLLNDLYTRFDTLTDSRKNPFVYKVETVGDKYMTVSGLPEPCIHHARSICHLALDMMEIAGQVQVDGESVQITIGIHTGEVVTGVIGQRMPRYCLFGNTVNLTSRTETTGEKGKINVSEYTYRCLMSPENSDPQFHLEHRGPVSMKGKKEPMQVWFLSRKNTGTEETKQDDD
Chain of Human soluble guanylate cyclase enzyme (hsGC) (Q02108 whole entry): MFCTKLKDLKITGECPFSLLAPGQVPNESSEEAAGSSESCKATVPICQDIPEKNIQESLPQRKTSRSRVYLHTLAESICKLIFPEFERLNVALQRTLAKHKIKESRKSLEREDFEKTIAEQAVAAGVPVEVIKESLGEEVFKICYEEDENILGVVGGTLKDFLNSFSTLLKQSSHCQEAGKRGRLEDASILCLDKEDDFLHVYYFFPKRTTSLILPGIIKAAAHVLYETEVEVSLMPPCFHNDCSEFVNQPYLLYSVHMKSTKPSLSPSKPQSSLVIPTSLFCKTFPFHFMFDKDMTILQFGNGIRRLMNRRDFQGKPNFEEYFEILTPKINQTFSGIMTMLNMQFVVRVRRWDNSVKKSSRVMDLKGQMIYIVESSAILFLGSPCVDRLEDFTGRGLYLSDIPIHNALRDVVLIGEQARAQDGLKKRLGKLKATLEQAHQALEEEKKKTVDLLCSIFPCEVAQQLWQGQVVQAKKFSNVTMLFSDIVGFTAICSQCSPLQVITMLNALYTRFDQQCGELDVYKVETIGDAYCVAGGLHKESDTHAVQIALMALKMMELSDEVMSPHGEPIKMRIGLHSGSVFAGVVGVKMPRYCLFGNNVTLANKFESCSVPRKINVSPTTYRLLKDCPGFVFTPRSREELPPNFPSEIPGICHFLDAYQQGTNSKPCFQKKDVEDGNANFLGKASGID
T1 sequence (Q02153 whole entry): as the sequence (Q02153 whole entry) above
T1 sequence (Q02108 whole entry): as the sequence (Q02108 whole entry) above

| Compound | HEK WC Assay (fold increase at 10 μM) [1] | HEK WC Assay (fold increase at 30 μM) [1] | Emax at 10 µM [2] [%] | Emax at 30 µM [2] [%] | sGC Enzyme (specific activity at 10 μM) [3] | sGC Enzyme (fold increase at 10 μM without SNP) [3] | sGC Enzyme (specific activity at 30 μM) [3] | sGC Enzyme (fold increase at 30 μM without SNP) [3] | HEK WC Assay (fold increase at 30 μM in the absence of SNP) [1] | HEK WC Assay (fold increase at 30 μM in the presence of 10 μM SNP) [2] | EC50 [2] [µM] | Emax [2, 4] [%] | Emax [2, 5] [%] | Emax [2, 6] [%] |
| --- | --- | --- | --- | --- | --- | --- | --- | --- | --- | --- | --- | --- | --- | --- |
| Fc1ccccc1Cn1nc(-c2ccccn2)cc1-c1cnccn1 [Compound I-34] | A (A = no increase to <1 fold increase) | A (A = no increase to <1 fold increase) | 0 to 10 | 0 to 10 | B (B = 50 to <100) | A (A = no increase to <2 fold increase) | C (C = 100 to <200) | A (A = no increase to <2 fold increase) |  |  |  |  |  |  |
| Fc1ccccc1Cn1nc(-c2ccccn2)cc1-c1ccncc1 [Compound I-11] | A (A = no increase to <1 fold increase) | A (A = no increase to <1 fold increase) | 0 to 10 | 0 to 10 |  | A (A = no increase to <2 fold increase) | C (C = 100 to <200) | A (A = no increase to <2 fold increase) |  |  |  |  |  |  |
| Fc1ccccc1Cn1nc(-c2ccccn2)cc1-c1cccnc1 [Compound I-20] | A (A = no increase to <1 fold increase) | A (A = no increase to <1 fold increase) |  |  | C (C = 100 to <200) | A (A = no increase to <2 fold increase) | D (D = 200 to <500) | A (A = no increase to <2 fold increase) |  |  |  |  |  |  |
| Fc1ccccc1Cn1nc(-c2ncccn2)cc1-c1cccnc1 [Compound I-10] | A (A = no increase to <1 fold increase) | A (A = no increase to <1 fold increase) | 0 to 10 | 0 to 10 | D (D = 200 to <500) | B (B = 2 to <5 fold increase) | D (D = 200 to <500) | B (B = 2 to <5 fold increase) |  |  |  |  |  |  |
| Fc1ccccc1Cn1nc(-c2ncccn2)cc1-c1ccncc1 [Compound I-19] | A (A = no increase to <1 fold increase) | A (A = no increase to <1 fold increase) |  |  |  | A (A = no increase to <2 fold increase) |  | A (A = no increase to <2 fold increase) |  |  |  |  |  |  |
| COc1cccc(-c2cc(-c3ncccn3)n(Cc3ccccc3F)n2)n1 [Compound I-15] | A (A = no increase to <1 fold increase) | A (A = no increase to <1 fold increase) | 0 to 10 | 0 to 10 | C (C = 100 to <200) | A (A = no increase to <2 fold increase) | C (C = 100 to <200) | A (A = no increase to <2 fold increase) |  |  |  |  |  |  |
| Fc1ccccc1Cn1nc(-c2ccccn2)cc1-c1ccncn1 [Compound I-21] | A (A = no increase to <1 fold increase) | A (A = no increase to <1 fold increase) | 0 to 10 | 10 to 20 | C (C = 100 to <200) | A (A = no increase to <2 fold increase) | C (C = 100 to <200) | A (A = no increase to <2 fold increase) |  |  |  |  |  |  |
| Fc1ccccc1Cn1nc(-c2ncccn2)cc1-c1cnc2ccoc2c1 [Compound I-32] | A (A = no increase to <1 fold increase) | A (A = no increase to <1 fold increase) | 0 to 10 | 0 to 10 | C (C = 100 to <200) | A (A = no increase to <2 fold increase) | D (D = 200 to <500) | A (A = no increase to <2 fold increase) |  |  |  |  |  |  |
| Nc1ccnc(-c2cc(-c3ccccn3)nn2Cc2ccccc2F)n1 [Compound I-41] | A (A = no increase to <1 fold increase) | A (A = no increase to <1 fold increase) | 0 to 10 | 0 to 10 | B (B = 50 to <100) | A (A = no increase to <2 fold increase) | C (C = 100 to <200) | B (B = 2 to <5 fold increase) |  |  |  |  |  |  |
| Fc1ccccc1Cn1nc(-c2ncccn2)cc1-c1ccon1 [Compound I-195] |  |  |  |  |  |  |  |  | D (D = 5 to <10 fold increase) | E (E = 10 to <20 fold increase) | < 20 | 40 to 60 | 60 to 80 | 60 to 80 |
| Nc1nc(-c2cc(-c3ccon3)n(Cc3ccccc3F)n2)ncc1NC(=O)c1cccc(Cl)c1 [Compound I-187] |  |  |  |  |  |  |  |  | D (D = 5 to <10 fold increase) | F (F = 20 to <30 fold increase) | < 20 | 40 to 60 | 60 to 80 | 60 to 80 |
| Nc1nc(-c2cc(-c3ccon3)n(Cc3ccccc3F)n2)ncc1NC(=O)CN1C(=O)c2ccccc2C1=O [Compound I-212] |  |  |  |  |  |  |  |  | D (D = 5 to <10 fold increase) | E (E = 10 to <20 fold increase) | < 20 | 60 to 80 | 60 to 80 | 60 to 80 |
| Nc1cnc(-c2cc(-c3ncco3)n(Cc3ccccc3F)n2)nc1N [Compound I-149] |  |  |  |  |  |  |  |  | C (C = 2 to <5 fold increase) | D (D = 5 to <10 fold increase) | 20 to 40 |  | 60 to 80 | 80 to 100 |
